One block for each molecule: values may come before it.
Experiments:
Format in all cases: cell-based
[1] = system: Candida albicans ATCC 10231; assay: MIC / synergy (FIC index) microplate growth test, optical density at 620 nm, Candida albicans
From the text: (§1) FIC Index=(MICa with B/MICa)+(MICb with A/MICb)
(§2) with: • MICa with B: minimum concentration of product A in the combination A+B which makes it possible to obtain an inhibitory effect • MICb with A: minimum concentration of product B in the combination A+B which makes it possible to obtain the inhibitory effect. • MICa: minimum inhibitory concentration of product A alone. • MICb: minimum inhibitory concentration of product B alone.
(§3) As regards the combinations tested, MICa with b and MICb with a are the respective concentrations of A and of B in the combinations which make it possible to obtain a microbial growth percentage of less than or equal to 25%.
(§4) When the FIC index value is less than or equal to 1, it is considered that the combination of test compounds has a synergistic effect.
The microbial strain Candida albicans ATCC 10231 and a double-concentration Sabouraud broth liquid culture medium were used.
(§5) A 96-well microplate and an […] of 32.5° C. are used.
(§6) The incubation time of the microplate is: • from 24 hours to 48 hours aerobically for Aspergillus niger; • from 18 to 24 hours aerobically for Candida albicans and Pseudomonas aeruginosa.
(§7) A 10% (weight/volume) stock solution was prepared by mixing 1 g of compound in 9 ml of aqueous 1% agar solution. Successive dilutions were made with the 1% agar solution. • Tests of compounds A and B alone
(§8) 50 μL of each of the daughter solutions obtained containing compound A or B are added to the microplate wells. 100 μL of Sabouraud liquid nutrient broth seeded with the strain Aspergillus niger and 50 μL of aqueous 1% agar solution are also added thereto. • Tests of compounds A and B as a mixture
(§9) 50 μL of each of the daughter solutions obtained containing compound A and 50 μL of each of the daughter solutions obtained containing compound B are added to the microplate wells. 100 μL of Sabouraud liquid nutrient broth seeded at double concentration with the strain Aspergillus niger are also added thereto.
(§10) A positive microbial growth control was also prepared. The positive microbial growth control corresponds to a mixture of 100 μL of aqueous 1% agar solution with 100 μL of Sabouraud liquid nutrient broth seeded at double concentration with the strain Aspergillus niger in the absence of compounds A and B.
(§11) An absorbance control was performed in parallel on compounds A and B alone. This control corresponds to 100 μL of double concentration sterile Sabouraud liquid nutrient broth+100 μL of double concentration compound A or B.
(§12) The test as described above (tests, absorbance control and growth control) was performed again to test the combination A+B on the strains Candida albicans and Pseudomonas aeruginosa.

[2] = system: Aspergillus niger ATCC 6275; assay: MIC / synergy (FIC index) microplate growth test, optical density at 620 nm, Aspergillus niger
From the text: as §1, §2, §3, §4
The microbial strain Aspergillus niger ATCC 6275, and a double-concentration Sabouraud broth liquid culture medium supplemented with polyoxyethylenated (20 OE) sorbitan monopalmitate (Tween 40 from Croda) and Phytagel© BioReagent were used.
as §5, §6, §7, §8, §9, §10, §11
In the two cases (test and control), the inoculum represents the concentration of the strain Aspergillus niger present in the final volume of the wells (200 μL) and is between 2 and 6×10^5 cfu/ml of Aspergillus niger.

[3] = system: Pseudomonas aeruginosa ATCC 9027; assay: MIC / synergy (FIC index) microplate growth test, optical density at 620 nm, Pseudomonas aeruginosa
From the text: as §1, §2, §3, §4
The microbial strain Pseudomonas aeruginosa ATCC 9027 and a double-concentration nutritive broth liquid culture medium were used.
as §5, §6, §7, §8, §9, §10, §11, §12

[4] = weight %, first concentration giving growth <= 25%

% MIC of B1 alone [1, 4]: 0.00395%
% MIC of B1 alone [2, 4]: 0.79%
% MIC of B1 alone [3, 4]: 0.0316%
SMILES: CCCCCCCCCCCCCCCCCCCCCC[N+](C)(C)C.[Cl-] [B1, behenyltrimethylammonium chloride]
microbial growth percentage ([1]; B1 0.002 weight % alone): 50%
microbial growth percentage ([1]; B1 0.00395 weight % alone): 1%
microbial growth percentage ([2]; B1 0.049 weight % alone): 186%
microbial growth percentage ([2]; B1 0.1 weight % alone): 155%
microbial growth percentage ([2]; B1 0.2 weight % alone): 78%
microbial growth percentage ([2]; B1 0.4 weight % alone): 34%
microbial growth percentage ([2]; B1 0.79 weight % alone): 8%
microbial growth percentage ([3]; B1 0.001975 weight % alone): 68%
microbial growth percentage ([3]; B1 0.00395 weight % alone): 93%
microbial growth percentage ([3]; B1 0.0079 weight % alone): 36%
microbial growth percentage ([3]; B1 0.0158 weight % alone): 30%
microbial growth percentage ([3]; B1 0.0316 weight % alone): 1%

% MIC of A alone [1, 4]: 0.2%
% MIC of A alone ([2]; Example 1, weight %, first concentration giving growth <= 25%): 0.4%
% MIC of A alone ([2]; Example 2, weight %, first concentration giving growth <= 25%): 0.4%
% MIC of A alone [3, 4]: 1%
SMILES: CCOc1cc(CCC(C)=O)ccc1O [A, 4-(3-ethoxy-4-hydroxyphenyl)butan-2-one]
microbial growth percentage ([1]; A 0.025 weight % alone): 73%
microbial growth percentage ([1]; A 0.05 weight % alone): 73%
microbial growth percentage ([1]; A 0.1 weight % alone): 49%
microbial growth percentage ([1]; A 0.2 weight % alone): 9%
microbial growth percentage ([2]; Example 1, A 0.025 weight % alone): 150%
microbial growth percentage ([2]; Example 1, A 0.05 weight % alone): 113%
microbial growth percentage ([2]; Example 1, A 0.1 weight % alone): 112%
microbial growth percentage ([2]; Example 1, A 0.2 weight % alone): 75%
microbial growth percentage ([2]; Example 1, A 0.4 weight % alone): 5%
microbial growth percentage ([2]; Example 2, A 0.025 weight % alone): 212%
microbial growth percentage ([2]; Example 2, A 0.05 weight % alone): 92%
microbial growth percentage ([2]; Example 2, A 0.1 weight % alone): 68%
microbial growth percentage ([2]; Example 2, A 0.2 weight % alone): 29%
microbial growth percentage ([2]; Example 2, A 0.4 weight % alone): 17%
microbial growth percentage ([3]; A 0.0625 weight % alone): 114%
microbial growth percentage ([3]; A 0.125 weight % alone): 59%
microbial growth percentage ([3]; A 0.25 weight % alone): 65%
microbial growth percentage ([3]; A 0.5 weight % alone): 41%
microbial growth percentage ([3]; A 1 weight % alone): 15%
